Experiments:
TLR1/2 [1] = molecular target: T1, TLR1/2 (Mus musculus, UniProt Q9EPQ1+Q9QUN7); test: In vitro TLR1/2 inhibition assay (nitric oxide, Pam3CSK4-activated RAW 264.7 macrophages); assay type: cell-based; details: RAW 264.7 NO assay; for TLR1/2 inhibitory activity (in words, SAR and specificity): Pam3CSK4
T1 construct: production of NO in RAW 264.7 macrophage cells; endogenous in cells; host or cells: RAW 264.7
Experimental: To identify novel TLR1/2 complex inhibitors, a cell-based assay was employed to screen the NCI-2 diversity small-molecule library. This 1,363 compound library was chosen from the larger NCI library, which has more than 140,000 compounds, on the basis of availability, purity, and other pharmacological features, such as relative rigidity, number of rotatable bonds and chiral centers, the absence of obvious leaving groups and weakly bounded heteroatoms, etc. Screening was performed in a 96-well plate format using a previously established high-throughput nitric oxide (NO) assay. See e.g. Cheng et al., Small molecule inhibitors of the TLR3/dsRNA complex, J. Am. Chem. Soc. (2011), 133:3764-67, which is herein incorporated by reference in its entirety. Briefly, synthetic triacylated lipoprotein Pam3CSK4 was employed to selectively activate TLR1/2 signaling, resulting in the expression of inducible nitric oxide synthase (iNOS) and the production of NO in RAW 264.7 macrophage cells. NO levels were monitored as an indicator of Pam3CSK4-induced TLR1/2 activation to evaluate the compound's inhibitory activity.
RAW 264.7 (Mouse leukaemic monocyte macrophage cell line) cells were grown in RPMI 1640 medium, supplemented with 10% FBS, penicillin (100 U/mL) and streptomycin ([…]). RAW cells were then planted in 96-well plates at 80,000 cells per well and grown for 24 h in the media descried previously at 37° C. in a 5% CO2 humidified incubator. After 24 h, non-adherent cells and media were removed and replaced with fresh unsupplemented RPMI 1640 medium. The adherent macrophages were treated with Pam3CSK4 (CAS No. 112208-00-1; a synthetic triacylated lipopeptide (LP) that mimics the acylated amino terminus of bacterial LPs) (200 ng/mL) (Invivogen, USA), an agonist of TLR1/2, and then added different concentrates of potential inhibitor. Two rows were only treated with Pam3CSK4 as control. Plates were then incubated for an additional 24 h. Following incubation 100 μL of media was removed and added to flat black 96-well microfluor plates (Thermo Scientific, MA, USA). To each well, 10 μL of 2,3-diaminonaphthalene (0.05 mg/mL in 0.62 M aqueous HCl solution) was added and incubated for 15 min in the dark. The reaction was quenched by addition of 5 μL of a 3 M aqueous NaOH solution and the plate was read on Beckman Coulter DTX880 reader (Beckman Coulter, Calif., USA) with excitation at 365 nm and emission at 450 nm. The nitrite (a stable metabolite of nitric oxide) concentration was determined from a nitrite standard curve. The inhibition rate (%) of NO release was determined using the following formula: Inhibition (%)=[Pam3CSK4(OD450) […]]/[Pam3CSK4 (OD450)−Control (OD450)]×100. The IC50 values for both inhibition and cytotoxicity were determined graphically using software Origin v7.5.

TLR1/2 [2] = molecular target: T2, TLR1/2 (Homo sapiens, UniProt O60603+Q15399); test: Fluorescence anisotropy competition assay with rhodamine-labeled Pam3CSK4; assay type: binding; parameters: His; TLR2 made in house; host or cells: baculovirus; Sf-9 for virus, High Five insect cells for expression (TLR2); details: negative control
Text: The TLR2 protein was expressed in the baculovirus insect cell expression system using the methods described by Kuroki et al. See Iwaki et al., The extracellular Toll-like receptor 2 domain directly binds peptidoglycan derived from Staphylococcus aureus, J. Biol Chem (2002), 277:24315-20, which is herein incorporated by reference in its entirety. The activity of the TLR2 protein was validated by the fluorescence anisotropy assay. […] Good fitting (R2>0.98) inferred that compound 17 and Pam3CSK4 compete for the same binding site on the TLR1/2 dimeric surface.
In 500 μL Tris buffer (pH=7.2) add 10 μL, (1 ng/mL) rhodamine-labeled Pam3CSK4, test the fluorescence anisotropy at excitation of 549 nm and emission of 566 nm (Horiba Fluorolog 3). And 5 μL (20 μM) TLR1 (R &D) and 5 μL, (20 μM) TLR2 was added into the above buffer, then retest the anisotropy. Following, compound 17 or compound 6 was added in the buffer from the concentration of 0 to 6 μM, and the fluorescence anisotropy was tested in the corresponding concentration.
Fluorescence polarization experiments were performed at 25° C. using a Horiba Fluorolog-3 fluorometer. For direct binding measurements, serial dilutions of TLR1 (R&D, MN) and TLR2 were made in Tris buffer (pH=7.2), and an aliquot (10 μL) of 1 ng/mL rhodamine labeled Pam3CSK4, was added to a total volume of 500 μL. The competition binding solution was incubated for 30 minutes at 25° C. Serial dilutions of compound 17 or compound 6 were incubated with 20 μM TLR1, 20 μM TLR2 and rhodamine-labeled Pam3CSK4 for 30 min at room temperature.
Regression analysis was carried out using Origin 7.5 (OriginLab) ligand binding macro module. […] Equation (1): y=min+(max−min)/(1+10^x-logIC50)(total binding, x=log concentration of and rhodamine-labeled Pam3CSK4, min=nonspecific binding, max=maximum binding in absence of ligand). Equation (2): Ki=IC50/(1+[L]/Kd) ([L]=concentration of rhodamine-labeled Pam3CSK4).
Target sequence in this assay (Q15399 25-580 limits assumed): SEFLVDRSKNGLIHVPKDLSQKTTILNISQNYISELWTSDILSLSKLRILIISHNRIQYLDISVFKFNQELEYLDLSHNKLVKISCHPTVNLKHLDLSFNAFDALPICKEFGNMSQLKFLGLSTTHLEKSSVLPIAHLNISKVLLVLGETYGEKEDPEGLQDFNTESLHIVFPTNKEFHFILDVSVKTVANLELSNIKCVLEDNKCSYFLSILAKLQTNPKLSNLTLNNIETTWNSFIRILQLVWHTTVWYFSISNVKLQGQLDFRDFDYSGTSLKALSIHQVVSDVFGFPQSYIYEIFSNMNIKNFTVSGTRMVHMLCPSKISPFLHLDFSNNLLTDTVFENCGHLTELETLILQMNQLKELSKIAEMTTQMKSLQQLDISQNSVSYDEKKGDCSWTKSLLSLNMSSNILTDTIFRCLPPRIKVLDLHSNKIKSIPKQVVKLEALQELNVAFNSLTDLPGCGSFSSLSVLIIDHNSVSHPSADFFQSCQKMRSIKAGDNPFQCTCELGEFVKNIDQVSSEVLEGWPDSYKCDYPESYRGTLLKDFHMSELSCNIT
Target sequence in this assay (O60603 21-588 limits assumed): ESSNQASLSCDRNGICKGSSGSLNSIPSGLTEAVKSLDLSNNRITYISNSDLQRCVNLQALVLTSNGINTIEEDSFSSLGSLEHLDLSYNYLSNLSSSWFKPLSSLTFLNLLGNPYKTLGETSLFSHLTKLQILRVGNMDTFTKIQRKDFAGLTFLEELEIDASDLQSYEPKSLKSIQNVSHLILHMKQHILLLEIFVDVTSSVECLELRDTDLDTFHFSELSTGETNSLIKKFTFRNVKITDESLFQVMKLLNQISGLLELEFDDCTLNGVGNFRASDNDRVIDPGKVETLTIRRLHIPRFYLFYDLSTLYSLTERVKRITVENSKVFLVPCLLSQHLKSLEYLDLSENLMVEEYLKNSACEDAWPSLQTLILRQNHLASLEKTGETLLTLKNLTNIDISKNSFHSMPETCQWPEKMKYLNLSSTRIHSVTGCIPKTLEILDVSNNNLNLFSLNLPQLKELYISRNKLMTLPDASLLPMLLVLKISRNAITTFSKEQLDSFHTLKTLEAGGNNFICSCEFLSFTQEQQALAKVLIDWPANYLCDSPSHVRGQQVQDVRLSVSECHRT

TLR1/2 [3] = molecular target: T2, TLR1/2; details: read-out: known affinity (Kd); cited from earlier work
Target sequence in this assay (Q15399 25-786): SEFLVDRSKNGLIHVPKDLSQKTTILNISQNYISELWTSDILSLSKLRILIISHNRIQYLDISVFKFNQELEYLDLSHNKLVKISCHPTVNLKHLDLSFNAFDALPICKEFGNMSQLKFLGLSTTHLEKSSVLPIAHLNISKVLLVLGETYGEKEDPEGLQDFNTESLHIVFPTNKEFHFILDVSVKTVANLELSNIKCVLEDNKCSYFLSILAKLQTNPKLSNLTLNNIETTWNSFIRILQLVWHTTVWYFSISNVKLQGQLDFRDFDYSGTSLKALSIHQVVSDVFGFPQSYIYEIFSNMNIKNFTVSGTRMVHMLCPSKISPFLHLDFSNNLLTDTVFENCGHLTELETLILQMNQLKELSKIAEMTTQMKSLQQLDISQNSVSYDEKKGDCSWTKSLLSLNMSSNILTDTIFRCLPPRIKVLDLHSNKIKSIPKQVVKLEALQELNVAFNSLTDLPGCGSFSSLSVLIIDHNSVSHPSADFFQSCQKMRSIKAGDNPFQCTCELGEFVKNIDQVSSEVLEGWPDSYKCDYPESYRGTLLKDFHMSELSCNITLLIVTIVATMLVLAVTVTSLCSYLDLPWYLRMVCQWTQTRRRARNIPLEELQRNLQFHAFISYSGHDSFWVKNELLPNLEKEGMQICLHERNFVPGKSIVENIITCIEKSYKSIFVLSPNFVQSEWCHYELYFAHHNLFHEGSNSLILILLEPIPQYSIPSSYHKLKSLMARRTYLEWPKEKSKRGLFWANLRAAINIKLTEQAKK
Target sequence in this assay (O60603 21-784): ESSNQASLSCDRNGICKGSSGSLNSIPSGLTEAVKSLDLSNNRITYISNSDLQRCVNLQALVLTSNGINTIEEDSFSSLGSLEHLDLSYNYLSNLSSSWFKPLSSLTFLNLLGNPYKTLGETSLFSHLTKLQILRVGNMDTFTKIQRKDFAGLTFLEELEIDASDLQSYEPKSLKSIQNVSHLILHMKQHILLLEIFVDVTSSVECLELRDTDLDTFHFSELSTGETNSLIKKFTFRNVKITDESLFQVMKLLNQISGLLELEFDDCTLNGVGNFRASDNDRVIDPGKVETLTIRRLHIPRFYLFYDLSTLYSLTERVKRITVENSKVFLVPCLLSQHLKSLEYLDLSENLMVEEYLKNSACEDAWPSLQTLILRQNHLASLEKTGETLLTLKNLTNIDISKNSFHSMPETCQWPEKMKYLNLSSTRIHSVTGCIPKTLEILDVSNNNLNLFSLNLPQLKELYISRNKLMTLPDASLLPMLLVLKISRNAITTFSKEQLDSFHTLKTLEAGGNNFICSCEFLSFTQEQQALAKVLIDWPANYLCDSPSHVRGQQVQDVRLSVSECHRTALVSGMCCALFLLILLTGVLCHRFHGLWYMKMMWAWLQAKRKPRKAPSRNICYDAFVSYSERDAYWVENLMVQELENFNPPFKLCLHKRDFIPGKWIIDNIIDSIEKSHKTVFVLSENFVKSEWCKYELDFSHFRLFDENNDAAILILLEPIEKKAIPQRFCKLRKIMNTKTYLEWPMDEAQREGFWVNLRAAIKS

T1 sequence (Q9EPQ1 26-795): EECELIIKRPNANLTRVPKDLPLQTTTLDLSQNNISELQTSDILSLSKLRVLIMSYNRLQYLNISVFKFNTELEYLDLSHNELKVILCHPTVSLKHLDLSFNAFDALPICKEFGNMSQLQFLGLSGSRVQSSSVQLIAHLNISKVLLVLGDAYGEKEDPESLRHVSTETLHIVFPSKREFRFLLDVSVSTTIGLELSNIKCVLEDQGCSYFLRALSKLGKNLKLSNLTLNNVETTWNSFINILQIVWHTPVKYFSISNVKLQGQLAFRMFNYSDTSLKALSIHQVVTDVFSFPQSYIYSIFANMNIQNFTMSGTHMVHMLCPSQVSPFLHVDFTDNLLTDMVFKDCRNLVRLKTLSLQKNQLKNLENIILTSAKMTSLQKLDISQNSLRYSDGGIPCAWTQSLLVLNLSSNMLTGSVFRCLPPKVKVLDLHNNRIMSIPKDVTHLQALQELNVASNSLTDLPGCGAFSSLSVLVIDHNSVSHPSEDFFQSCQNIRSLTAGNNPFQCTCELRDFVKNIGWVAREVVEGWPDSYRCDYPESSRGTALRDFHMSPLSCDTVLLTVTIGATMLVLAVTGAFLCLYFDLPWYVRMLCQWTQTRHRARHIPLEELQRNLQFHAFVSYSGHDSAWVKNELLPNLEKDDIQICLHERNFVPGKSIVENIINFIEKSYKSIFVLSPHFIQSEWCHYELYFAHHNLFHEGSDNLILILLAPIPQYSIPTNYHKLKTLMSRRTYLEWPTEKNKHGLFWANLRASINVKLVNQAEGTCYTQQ
T1 sequence (Q9QUN7 25-784): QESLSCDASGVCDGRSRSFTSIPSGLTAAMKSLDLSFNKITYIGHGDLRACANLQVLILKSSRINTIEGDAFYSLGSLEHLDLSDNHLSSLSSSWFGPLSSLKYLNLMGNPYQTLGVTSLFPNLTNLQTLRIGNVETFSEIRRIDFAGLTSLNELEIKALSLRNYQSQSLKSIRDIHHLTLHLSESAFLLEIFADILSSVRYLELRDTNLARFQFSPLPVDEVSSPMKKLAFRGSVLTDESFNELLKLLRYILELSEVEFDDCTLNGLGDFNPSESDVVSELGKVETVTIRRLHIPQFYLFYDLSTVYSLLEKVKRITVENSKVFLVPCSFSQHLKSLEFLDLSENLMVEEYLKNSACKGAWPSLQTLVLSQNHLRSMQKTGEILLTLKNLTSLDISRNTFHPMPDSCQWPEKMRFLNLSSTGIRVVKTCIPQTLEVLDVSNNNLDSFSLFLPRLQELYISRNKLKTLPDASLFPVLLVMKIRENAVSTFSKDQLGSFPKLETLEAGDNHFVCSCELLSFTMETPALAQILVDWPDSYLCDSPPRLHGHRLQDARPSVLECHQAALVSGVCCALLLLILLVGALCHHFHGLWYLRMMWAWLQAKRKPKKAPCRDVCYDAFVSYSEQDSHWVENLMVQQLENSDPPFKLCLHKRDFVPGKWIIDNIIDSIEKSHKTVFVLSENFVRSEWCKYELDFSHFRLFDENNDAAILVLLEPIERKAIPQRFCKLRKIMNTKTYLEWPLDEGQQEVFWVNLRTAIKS

Row | Compound | TLR1/2 inhibitory activity (in words, SAR and specificity) (TLR1/2 [1]) | further results
1 | COc1cc2cc(C(=O)O)cc(O)c(=O)c2c(O)c1O [compound 10, 3,4,6-trihydroxy-2-methoxy-5-oxo-5H-benzo[7]annulene-8-carboxylic acid] |  | decrease of TLR1/2 inhibitory activity versus comparator (TLR1/2 [1]; SAR comparison): six-fold
2 | COc1cc2cc(C(=O)Nc3ccccc3C)cc(O)c(=O)c2c(O)c1O [compound 24, 3,4,6-trihydroxy-2-methoxy-5-oxo-N-o-tolyl-5H-benzo[7]annulene-8-carboxamide] | no significant change in activity | 
3 | COc1cc2cccc(OC)c(=O)c2c(OC)c1OC [compound 6, 2,3,4,6-tetramethoxy-5H-benzo[7]annulen-5-one] | significant decrease of inhibition | IC50 (TLR1/2 [2]): > 40000 nM
4 | COc1cc2cccc(O)c(=O)c2c(O)c1O [compound 4, 3,4,6-trihydroxy-2-methoxy-5H-benzo[7]annulen-5-one] | no significant influence to its activity | 
5 | Pam3CSK4 |  | Kd (TLR1/2 [3]): 1.2 nM
6 | COC(=O)c1cc(O)c(=O)c2c(O)c(O)c(OC)cc2c1 [compound 11, Methyl 3,4,6-trihydroxy-2-methoxy-5-oxo-5H-benzo[7]annulene-8-carboxylate] | returned the activity to the NCI35676 level | 
7 | CCCCCCNC(=O)c1cc(O)c(=O)c2c(O)c(O)c(OC)cc2c1 [compound 22, N-hexyl-3,4,6-trihydroxy-2-methoxy-5-oxo-5H-benzo[7]annulene-8-carboxamide] | activity slightly decreased | 
8 | COc1cc2cc(CO)cc(O)c(=O)c2c(O)c1O [compound 23, 3,4,6-trihydroxy-8-(hydroxymethyl)-2-methoxy-5H-benzo[7]annulen-5-one] | no significant change in activity | 

Reference: patent publication US9517993B2, “Antagonists of the toll-like receptor 1/2 complex” (THE REGENTS OF THE UNIVERSITY OF COLORADO, a body corporate, priority 2012, dated 2016)
